# Source: patent US9772334B2, “Inflammatory bowel disease markers and therapies for colitis-associated intestinal fibrosis” (THE REGENTS OF THE UNIVERSITY OF CALIFORNIA, priority 2012, dated 2017)
# “Also recorded” adds a separate entry of the source.
# Legend:
# [1] = tested on: human colonic CCD-18Co fibroblasts; assay: TGF-β1 and IGF-1 induced collagen (COL1A2) expression in CCD-18Co fibroblasts; assay type: cell-based
# Excerpt: Collagen (COL1A2) and total ERK protein expression was detected by Western blot analyses and quantitative image densitometry.
# [2] = tested on: human primary colonic fibroblasts; assay: TGF-β1 and IGF-1 induced COL1A2 mRNA expression in human primary colonic fibroblasts; assay type: cell-based; details: LL-37 5-10 μM; 24 hours; p=0.0108 and p=0.0049; concentration dependent
# Method: Camp mRNA in Camp^−/− mice was undetectable. […] Collagen (COL1A2) and total ERK protein expression was detected by Western blot analyses and quantitative image densitometry. […] TGF-β1 and IGF-1 induced COL1A2 mRNA expression in colonic fibroblasts (P=0.049) was inhibited by LL-37 (5-10 μM, p=0.001) in concentration dependent manner. […] TGF-β1 and IGF-1 induced COL1A2 mRNA expression in colonic fibroblasts (P=0.0233) was inhibited by LL-37 (5-10 μM, p=0.0108 and p=0.0049) in concentration dependent manner. All experiments are representative of 3 independent experiments.
# CCD-18Co fibroblasts = assay: β-tubulin expression and tubulin distribution in CCD-18Co fibroblasts; assay type: cell-based, human; details: for tubulin distribution (tubulin tracker): 10 μM, 24 hours
# CCD-18Co = assay: Cell migration of CCD-18Co in modified Boyden chamber; assay type: cell-based, human; details: LL-37 0-10 μM; 37° C. for 8 hours
# Method: Fibroblasts accumulated in the mucosal and submucosal locations as collagen deposition. […] Three different locations (3 separate images) per sample were counted. […] Cell migration was not affected by LL-37 (0-10 μM). Results are representative of 3 independent experiments.
# [3] = tested on: TNFα expression in human PBMCs; assay: PAMP induced TNFα protein expression in human PBMCs; assay type: cell-based; details: 16 hours
# Method: (§1) To identify the anti-inflammatory mechanism of cathelicidin, human PBMCs and mouse macrophages to were exposed to PAMP signals (LPS and E. coli DNA) in the presence of cathelicidin LL-37 or mCRAMP (1-10 μM).
# [4] = tested on: TNFα expression in fresh human colonic biopsies; assay: LPS induced TNFα protein expression in fresh human colonic biopsies; assay type: cell-based; details: LL-37 10 μM; LPS 0.1 μg/ml; 16 hours
# Method: Human intestinal biopsies were obtained from normal patients, UC patients and CD patients after informed consent in accordance with procedures established by the Cedars-Sinai Institutional Review Board, IRBs 3358 and 23705 and UCLA Institutional Review Board IRB 11-001527. Baseline characteristics were outlined in FIG. 12B. Some fresh biopsies were frozen until homogenization. Some fresh colonic biopsies were cut into ˜3×3 mm pieces and incubated in serum free DMEM with 1% penicillin/streptomycin (Invitrogen) and exposed to LPS and/or LL-37.
# NCM460 colonocytes = assay: Apoptosis (cleaved PARP) in NCM460 colonocytes; assay type: cell-based, human; details: LL-37 10 μM; proinflammatory cytokine cocktail or TNFα 10 ng/ml; 24 hours
# Method: NCM460 cells were treated with proinflammatory cytokines cocktail or TNFα (10 ng/ml) with or without LL-37 (10 μM) for 24 hours. Apoptosis signaling molecule cleaved PARP was determined by Western blot and quantification. […] All experiments are representative of 3 independent experiments.
# [5] = tested on: Akt and ERK phosphorylation in CCD-18Co fibroblasts; assay: Akt and ERK phosphorylation in CCD-18Co fibroblasts (Western blot); details: 30 minutes, concentration dependent
# [6] = tested on: TNFα expression in Raw264.7 macrophages; assay: PAMP induced TNFα expression in Raw264.7 macrophages; assay type: cell-based, mouse; details: for LPS induced TNFα expression under IGF-1R inhibition: IGF-1R inhibitor 10 μM pretreatment 30 minutes, LPS 0.1 μg/ml
# Method: as §1
# DSS mediated colitis [7] = assay: DSS mediated colitis in mice, intraperitoneal sodium butyrate; assay type: in vivo
# Excerpt: FIGS. 15A-15D show endogenous cathelicidin induction by sodium butyrate ameliorated DSS mediated colitis in mice. FIG. 15A is an illustration of the administration of DSS and/or sodium butyrate to mCRAMP deficient (Camp^−/−) and wild-type mice (i.e., the experimental plan).
# (§2) FIGS. 16A-16F show sodium butyrate inhibited colonic TNFα expression but not colonic microflora load. […] The decrease of TNFα levels in Camp^−/− mice was minimized (drop by 4 pg/μg protein), compared to wild-type mice (drop by 6 pg/μg protein). […] All experiments are representative of 3 independent experiments.
# To investigate the role of endogenous cathelicidin induction in the amelioration of acute colitis, mCRAMP deficient (Camp^−/−) and wild-type mice were administered with DSS and/or sodium butyrate as illustrated in FIG. 15A. DSS colitis led to significant tissue damages (FIG. 15C) with body weight loss (FIG. 15B) and increased histology score (FIG. 15C).
# Raw264.7 macrophages = assay: Camp mRNA expression in Raw264.7 macrophages; assay type: cell-based, mouse; details: 5 mM; 6 and 24 hours; serum starved
# [8] = tested on: human colonic epithelial NCM460 cells; assay: Cathelicidin protein level in conditioned media of NCM460 cells; assay type: cell-based; details: 5 mM; 16 hours; serum starved
# Excerpt: as §2
# UC disease activity = details: humans; Vernia et al. 2000; cited from earlier work
# DSS mediated colitis [9] = details: animal models; Vieira et al. 2011; cited from earlier work
# [10] = inhibitor 10 μM pretreatment 30 minutes, 72 hours, p=0.0005
molecule,measurement,setting,value
LL-37 (LLGDFFRKSKEKIGKEFKRIVQRIKDFLRNLVPRTES),"TGF-β1 and IGF-1 induced COL1A2 expression (Western blot, densitometry)","[1]; 10 μM LL-37, TGF-β1 50 ng/ml and IGF-1 10 ng/ml, 48 hours, p=0.0001",significantly reduces; also recorded: reduced
same,TGF-β1 and IGF-1 induced COL1A2 mRNA expression,"[1]; LL-37 5-10 μM, 24 hours, p=0.001, concentration dependent",significantly reduces; also recorded: inhibited
same,TGF-β1 and IGF-1 induced COL1A2 mRNA expression,[2],inhibited
same,tubulin distribution (tubulin tracker),CCD-18Co fibroblasts,shrunk the tubulin network
same,β-tubulin expression,"CCD-18Co fibroblasts; LL-37 10 μM, 72 hours",inhibition
same,cell migration,CCD-18Co,not affected
same,LPS induced TNFα protein expression in conditioned media,"[3]; LL-37 10 μM, LPS 0.1 μg/ml",significantly reduced
same,E. coli DNA induced TNFα expression,"[3]; LL-37 1-10 μM, E. coli DNA 0.5 μg/ml",no inhibitory effect
same,LPS induced TNFα protein expression in conditioned media,[4],almost abolished
same,"apoptosis (cleaved PARP, Western blot)",NCM460 colonocytes,failed to reverse PARP cleavage; also recorded: did not affect apoptosis
same,ERK phosphorylation,[5]; LL-37 up to 10 μM,significantly induced
same,Akt phosphorylation,[5],significantly induced
pertussis toxin,effect on the inhibitory effect of cathelicidin against LPS induced TNFα expression,"[6]; pertussis toxin 500 ng/ml pretreatment overnight, mCRAMP 1-10 μM, 16 hours",reversed; also recorded: revered
C=C1[C@@H](C)[C@H]2[C@H](Cc3ccccc3)NC(=O)[C@]23OC(=O)/C=C/[C@H](O)CCC[C@@H](C)C/C=C/[C@H]3[C@@H]1O [cytochalasin B],TGF-β1 and IGF-1 induced COL1A2 expression,[1]; [10],affected
same,tubulin distribution (tubulin tracker),CCD-18Co fibroblasts,shrunk tubulin network in cells
same,TGF-β1 and IGF-1 induced β-tubulin expression,CCD-18Co fibroblasts; [10],affected
N#C/C(=C\c1ccc2oc(=O)[nH]c2c1)C(=O)c1ccc(O)c(O)c1 [AGL2263],LPS induced TNFα expression under IGF-1R inhibition,[6]; 16 hours,not affected
COc1cccc(-c2cc(=O)c3ccccc3o2)c1N [PD98059],involvement in the LL-37 mediated inhibition of β-tubulin expression,"CCD-18Co fibroblasts; inhibitor 10 μM pretreatment 30 minutes, LL-37 10 μM, 72 hours",not involved
N#C/C(=C\c1ccc(O)c(O)c1)C(=O)c1ccc(O)c(O)c1 [AG538],LPS induced TNFα expression under IGF-1R inhibition,[6]; 16 hours,not affected
mouse IGF-1: mouse insulin like growth factor-1,effect on the mCRAMP mediated inhibition of LPS induced TNFα secretion,"[6]; mouse IGF-1 80 pg/ml pretreatment 30 minutes, mCRAMP 10 μM, 16 hours",reversed the mCRAMP mediated inhibition
N#CC(=C(/N)Sc1ccccc1N)/C(C#N)=C(\N)Sc1ccccc1N [U0126],LPS induced TNFα expression,[6],inhibited; also recorded: suppressed LPS induced TNFα expression
CCCC(=O)[O-].[Na+] [sodium butyrate],decrease of colonic TNFα levels,DSS mediated colitis [7]; Camp−/− mice,21 % reduction
same,drop of colonic TNFα levels,DSS mediated colitis [7]; Camp−/− mice,4 pg/μg protein
same,"colonic microflora load (16S expression, PCR)",DSS mediated colitis [7]; DSS exposed mice,did not cause significant change; also recorded: did not alter colonic 16S expression
same,colonic Camp mRNA expression,DSS mediated colitis [7]; DSS treated mice,significantly induced; also recorded: further augmented
same,colonic mCRAMP protein expression (Western blot),DSS mediated colitis [7]; DSS treated wild-type mice,significantly induced; also recorded: increased colonic mCRAMP protein expression
same,colonic TNFα levels,"DSS mediated colitis [7]; both wild-type and Camp−/− mice, p=0.04",significantly reduced colonic TNFα levels
same,decrease of colonic TNFα levels,DSS mediated colitis [7]; wild-type mice,40 % reduction
same,drop of colonic TNFα levels,DSS mediated colitis [7]; wild-type mice,6 pg/μg protein
same,histology score,"DSS mediated colitis [7]; wild-type mice, intraperitoneal",significant decrease of histology score
same,Camp mRNA expression,Raw264.7 macrophages,significantly increased Camp mRNA expression
same,cathelicidin protein level in conditioned media,[8],significantly increased
same,clinical UC disease activity,UC disease activity,reduce clinical UC disease activity
same,DSS mediated colitis,DSS mediated colitis [9],reduce
CN([C@@H](Cc1ccc(OS(=O)(=O)c2cccc3cnccc23)cc1)C(=O)N1CCN(c2ccccc2)CC1)S(=O)(=O)c1cccc2cnccc12 [KN62],effect on the anti-inflammatory effect of cathelicidin against LPS,"[6]; antagonist 10 μM pretreatment 30 minutes, mCRAMP 10 μM, 16 hours",did not alter the anti-inflammatory effect of cathelicidin
